# Reference: patent US20180207069A1, “COSMETIC USE OF A MONOUNSATURATED FATTY ACID OR ONE OF ITS SALTS AND/OR OF ITS ESTERS AS DEODORANT ACTIVE AGENT” (L'OREAL, priority 2012, published 2018)
# Legend:
# Assay type in all cases: cell-based
# [1] = system: Corynebacterium striatum; test: GC/MS (SPME) analysis of volatile compounds of cultures, C. striatum; settings: C. striatum culture, 37° C., 48 hours
# Protocol: (§1) The four microorganisms were each cultured in a liquid medium comprising 1.6 g/l of KH2PO4, 5.0 g/l of (NH4)2HPO4, 0.38 g/l of Na2SO4, 3.35 g/l of yeast nitrogen base (difco), 0.5 g/l of yeast extract and 0.5 g/l of MgCl2.6H2O, 1.0 g/l of Tween 80, 1.0 g/l of valine, 1.0 g/l of leucine, 1.0 g/l of isoleucine and 1.0 g/l of methionine. Depending on the analyses to be carried out (profile of the odour by GC/MS or sensory evaluation), the various types of culture medium were prepared either in 2 ml of culture (high-throughput screening format in 96-well microtitration plates) or else 200 ml in Erlenmeyer flasks. For the GC/MS analyses, 2 ml of culture are sufficient but, for the sensory evaluation, for a panel of 12 people, the minimum amount of 200 ml of culture is necessary. […]
# (§2) The strains were cultured aerobically at 37° C. for 48 hours. The magnitude of the growth was measured with the optical density (OD) at 600 nm. The cultures were subsequently analyzed for volatile odorous compounds by SPME-GC/MS. […]
# (§3) In order to determine the relative amount of volatile compounds present in the culture medium, a solid phase microextraction (SPME; Supelco, USA), gas chromatography coupled with mass spectrometry (HS-SPME-GC/MS; Fisons, USA), is carried out. […] The mass spectra were recorded over an m/z range of 30-250. […]
# [2] = system: Staphylococcus epidermidis; test: GC/MS (SPME) analysis of volatile compounds of cultures, S. epidermidis; settings: S. epidermidis culture, 37° C., 48 hours
# Protocol: as §1, §2, §3
# [3] = system: Corynebacterium striatum; test: In vitro sensory evaluation of culture odour, C. striatum; settings: petroselinic acid 0.05 g/l in culture medium, panel of 12 experts
# Protocol: as §1, with “flasks.” for “flasks. For the GC/MS analyses, 2 ml of culture are sufficient but, for the sensory evaluation, for a panel of 12 people, the minimum amount of 200 ml of culture is necessary.”
# as §2
# (§4) For the sensory analysis, the minimum amount of 200 ml of culture medium is necessary for a panel of 12 experts. […] Before the sensory analysis, the cultures were sterilized by filtration and the filtrates were stored at 4° C. until analyzed. In a first phase, the profile of the odour was evaluated on the basis of the strongest odours by the sensory panel, with an intensity grade which varies from 1 to 4 (1—a little, 2—moderate, 3—strong and 4—very strong). […]
# [4] = system: Corynebacterium mucifaciens; test: GC/MS (SPME) analysis of volatile compounds of cultures, C. mucifaciens; settings: C. mucifaciens culture, 37° C., 48 hours
# Protocol: as §1, §2, §3
# [5] = system: Staphylococcus epidermidis; test: In vitro sensory evaluation of culture odour, S. epidermidis; settings: petroselinic acid 0.05 g/l in culture medium, panel of 12 experts
# Protocol: as §1, with “flasks.” for “flasks. For the GC/MS analyses, 2 ml of culture are sufficient but, for the sensory evaluation, for a panel of 12 people, the minimum amount of 200 ml of culture is necessary.”
# as §2, §4
# [6] = system: Corynebacterium mucifaciens; test: In vitro sensory evaluation of culture odour, C. mucifaciens; settings: petroselinic acid 0.05 g/l in culture medium, panel of 12 experts
# Protocol: as §1, with “flasks.” for “flasks. For the GC/MS analyses, 2 ml of culture are sufficient but, for the sensory evaluation, for a panel of 12 people, the minimum amount of 200 ml of culture is necessary.”
# as §2, §4
# [7] = system: Corynebacterium xerosis; test: Minimum Inhibitory Concentration (MIC), C. xerosis; settings: DSM20743, read-out: Minimum Inhibitory Concentration (MIC) C. xerosis
# Source text: (§5) The Minimum Inhibitory Concentration (MIC) on the microorganisms Corynebacterium striatum, Corynebacterium mucifaciens and Corynebacterium xerosis with the following active agents was compared.
# [8] = system: Corynebacterium striatum; test: Minimum Inhibitory Concentration (MIC), C. striatum; settings: LMG19648, read-out: Minimum Inhibitory Concentration (MIC) C. striatum
# Source text: as §5
# [9] = system: Corynebacterium mucifaciens; test: Minimum Inhibitory Concentration (MIC), C. mucifaciens; settings: LMG19067, read-out: Minimum Inhibitory Concentration (MIC) C. mucifaciens
# Source text: as §5
# [10] = acid added to culture medium (petroselinic 0.05, linolenic 0.5, myristic 0.005, azelaic 0.5 g/l)
# [11] = petroselinic acid 0.05 g/l in culture medium
SMILES,"amount of aldehydes [1, 10]","concentration of ketone compounds [1, 11]","amount of aldehydes [2, 10]","concentration of ketone compounds [2, 11]",description of the odour notes [3],resulting odour as perceived by the panel of experts [3],"aldehydes in the odour profile [4, 10]","concentration of ketone compounds [4, 11]",description of the odour notes [5],resulting odour as perceived by the panel of experts [5],description of the scent [6],perception of the odour [6],MIC [7] [µg/mL],MIC [8] [µg/mL],MIC [9] [µg/mL]
CCCCCCCCCCC/C=C\CCCCC(=O)O [Petroselinic acid],significant reduction,greater concentration,significant reduction,greater concentration,fresher notes with scents described as “green” and “putty”,more pleasant,noticeable reduction,greater concentration,fresher notes with scents described as “green” and “putty”,more pleasant,scent described as “putty”,more pleasant,,,
"Oc1cc(Cl)ccc1Oc1ccc(Cl)cc1Cl [Triclosan, 2,4,4′-trichloro-2′-hydroxydiphenyl ether]",,,,,,,,,,,,,50,10,25
